According to paper doi:10.1101/2022.11.14.516475v2 (biorxiv, 2022):
Each block holds one compound with its values, some of them ahead of it.

Tests used:
D2 [1] = biological target: T1, D2 (Homo sapiens, UniProt P14416); assay type: cell-based; design: gene DRD2; full length; pcDNA3.1 mutants); DiscoverX beta-galactosidase fragment fusion for beta-arrestin assay; conditions: agonist
[2] = biological target: T2, 5-HT2A serotonin receptor (Homo sapiens, UniProt P28223); assay: DiscoverX gpcrMAX beta-arrestin recruitment, antagonist mode; assay type: cell-based; conditions: read-out: % inhibition at 10 μM
T2 construct: gene HTR2A; DiscoverX gpcrMAX PathHunter beta-arrestin cell line, enzyme-fragment tagged receptor

[3] = biological target: T3, 5-HT2C serotonin receptor (Homo sapiens, UniProt P28335); assay: PDSP radioligand binding competition; conditions: read-out: % inhibition at 10 μM
T3 construct: gene HTR2C
T3 sequence (P28335 33-458): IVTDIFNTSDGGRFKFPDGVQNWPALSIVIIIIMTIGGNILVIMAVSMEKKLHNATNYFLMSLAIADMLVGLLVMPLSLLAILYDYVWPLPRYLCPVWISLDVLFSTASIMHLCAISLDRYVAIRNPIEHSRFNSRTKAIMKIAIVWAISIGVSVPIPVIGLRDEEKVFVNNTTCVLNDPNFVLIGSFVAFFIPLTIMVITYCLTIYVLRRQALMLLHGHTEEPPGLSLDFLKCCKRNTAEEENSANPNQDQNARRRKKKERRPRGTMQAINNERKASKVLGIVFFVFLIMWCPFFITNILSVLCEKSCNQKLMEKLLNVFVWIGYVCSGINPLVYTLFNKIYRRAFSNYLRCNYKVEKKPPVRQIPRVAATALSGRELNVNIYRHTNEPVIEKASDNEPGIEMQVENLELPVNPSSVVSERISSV

hERG K+ channel = biological target: T4, hERG K+ channel (Homo sapiens, UniProt Q12809); assay: automated whole-cell patch clamp, HEK293, tail current; assay type: cell-based; conditions: hek293 cells
T4 construct: gene KCNH2; expressed in HEK293 cells (Cyprotex), automated patch clamp

5-HT7 serotonin receptor = biological target: T5, 5-HT7 serotonin receptor (Homo sapiens, UniProt P34969); assay: PDSP radioligand binding competition; conditions: read-out: % inhibition at 10 μM
T5 construct: gene HTR7

D3 = biological target: T6, D3 (Homo sapiens, UniProt P35462); assay: biochemical; design: PDSP radioligand binding competition, single concentration, % inhibition of specific binding; conditions: read-out: ML321 (10 µM) % Inhibition
T6 construct: gene DRD3
Experimental: ML321 was screened using the National Institute of Mental Health Psychoactive Drug Screening Program (PDSP) directed by Dr. Bryan L. Roth (University of North Carolina, Chapel Hill, NC). For experimental details including radioligands used and associated Kd values for each individual target, please refer to the PDSP website http://pdsp.med.unc.edu/. […] Assays were performed in triplicate. To further assess ML321 selectivity amongst a larger group of drug targets, we used the NIMH Psychoactive Drug Screening Program (PDSP), which utilizes radioligand binding competition assays for 46 unique GPCRs, transporters and ion channels. For screening, a single high concentration (10 µM) of ML321 was used to compete for radioligand binding to the PDSP targets (Figure 1C).

[4] = biological target: T7, SNAP-tagged human D2SR (SNAP-D2RS) (Homo sapiens, UniProt P14416); assay: biochemical; assay type: CHO cell membranes; design: TR-FRET competition kinetic binding with PPHT-red, Motulsky-Mahan fit; conditions: read-out: koff (min^-1)
T7 construct: gene DRD2

D2 [5] = biological target: T1, D2; assay: biochemical; design: gene DRD2; PDSP radioligand binding competition, single concentration, % inhibition of specific binding; conditions: read-out: ML321 (10 µM) % Inhibition
[6] = biological target: T7, SNAP-tagged human D2SR (SNAP-D2RS); assay: TR-FRET association kinetics; assay type: binding; conditions: labelled compound; read-out: Kd (koff / kon)
D2 [7] = biological target: T1, D2; assay type: binding; design: gene DRD2; full length; pcDNA3.1 mutants); DiscoverX beta-galactosidase fragment fusion for beta-arrestin assay; conditions: wild-type control

T1 sequence (P14416 whole entry, the tested form may be a part): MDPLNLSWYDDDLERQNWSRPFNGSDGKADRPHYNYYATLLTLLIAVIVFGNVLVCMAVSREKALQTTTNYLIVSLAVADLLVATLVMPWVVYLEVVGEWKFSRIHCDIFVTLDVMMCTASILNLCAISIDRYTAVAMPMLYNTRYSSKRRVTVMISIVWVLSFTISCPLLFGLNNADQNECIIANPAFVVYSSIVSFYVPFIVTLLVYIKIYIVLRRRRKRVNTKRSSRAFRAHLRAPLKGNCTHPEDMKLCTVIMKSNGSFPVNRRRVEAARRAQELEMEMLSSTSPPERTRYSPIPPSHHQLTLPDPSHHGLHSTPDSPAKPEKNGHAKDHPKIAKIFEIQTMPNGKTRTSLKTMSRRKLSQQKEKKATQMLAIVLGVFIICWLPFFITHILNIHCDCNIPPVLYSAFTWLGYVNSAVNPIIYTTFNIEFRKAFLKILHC
T7 sequence (P14416 1-414 isoform P14416-2): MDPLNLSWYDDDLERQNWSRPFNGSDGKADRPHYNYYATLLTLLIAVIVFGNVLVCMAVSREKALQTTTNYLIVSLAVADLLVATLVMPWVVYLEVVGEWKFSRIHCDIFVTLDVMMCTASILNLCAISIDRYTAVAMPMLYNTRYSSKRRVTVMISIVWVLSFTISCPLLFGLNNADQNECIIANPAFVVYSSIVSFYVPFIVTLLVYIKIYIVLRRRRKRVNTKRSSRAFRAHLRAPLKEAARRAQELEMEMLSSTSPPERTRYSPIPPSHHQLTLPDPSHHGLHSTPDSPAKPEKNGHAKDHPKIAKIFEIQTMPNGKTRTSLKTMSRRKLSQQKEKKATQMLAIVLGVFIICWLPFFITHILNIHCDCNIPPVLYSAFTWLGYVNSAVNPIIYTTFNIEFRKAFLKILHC
T2 sequence (P28223 whole entry, the tested form may be a part): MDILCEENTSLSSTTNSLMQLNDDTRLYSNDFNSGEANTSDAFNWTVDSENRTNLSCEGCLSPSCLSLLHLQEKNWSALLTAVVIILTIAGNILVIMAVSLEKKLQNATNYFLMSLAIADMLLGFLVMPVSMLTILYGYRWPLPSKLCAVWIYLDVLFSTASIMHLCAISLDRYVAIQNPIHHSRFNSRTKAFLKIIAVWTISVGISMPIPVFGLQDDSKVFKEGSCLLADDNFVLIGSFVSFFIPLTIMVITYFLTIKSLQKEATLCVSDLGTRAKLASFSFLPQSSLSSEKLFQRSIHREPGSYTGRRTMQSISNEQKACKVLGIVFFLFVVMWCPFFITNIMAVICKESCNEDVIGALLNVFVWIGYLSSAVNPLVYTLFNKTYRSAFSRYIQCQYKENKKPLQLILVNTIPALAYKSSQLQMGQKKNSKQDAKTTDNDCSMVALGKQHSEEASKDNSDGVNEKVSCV
T4 sequence (Q12809 whole entry): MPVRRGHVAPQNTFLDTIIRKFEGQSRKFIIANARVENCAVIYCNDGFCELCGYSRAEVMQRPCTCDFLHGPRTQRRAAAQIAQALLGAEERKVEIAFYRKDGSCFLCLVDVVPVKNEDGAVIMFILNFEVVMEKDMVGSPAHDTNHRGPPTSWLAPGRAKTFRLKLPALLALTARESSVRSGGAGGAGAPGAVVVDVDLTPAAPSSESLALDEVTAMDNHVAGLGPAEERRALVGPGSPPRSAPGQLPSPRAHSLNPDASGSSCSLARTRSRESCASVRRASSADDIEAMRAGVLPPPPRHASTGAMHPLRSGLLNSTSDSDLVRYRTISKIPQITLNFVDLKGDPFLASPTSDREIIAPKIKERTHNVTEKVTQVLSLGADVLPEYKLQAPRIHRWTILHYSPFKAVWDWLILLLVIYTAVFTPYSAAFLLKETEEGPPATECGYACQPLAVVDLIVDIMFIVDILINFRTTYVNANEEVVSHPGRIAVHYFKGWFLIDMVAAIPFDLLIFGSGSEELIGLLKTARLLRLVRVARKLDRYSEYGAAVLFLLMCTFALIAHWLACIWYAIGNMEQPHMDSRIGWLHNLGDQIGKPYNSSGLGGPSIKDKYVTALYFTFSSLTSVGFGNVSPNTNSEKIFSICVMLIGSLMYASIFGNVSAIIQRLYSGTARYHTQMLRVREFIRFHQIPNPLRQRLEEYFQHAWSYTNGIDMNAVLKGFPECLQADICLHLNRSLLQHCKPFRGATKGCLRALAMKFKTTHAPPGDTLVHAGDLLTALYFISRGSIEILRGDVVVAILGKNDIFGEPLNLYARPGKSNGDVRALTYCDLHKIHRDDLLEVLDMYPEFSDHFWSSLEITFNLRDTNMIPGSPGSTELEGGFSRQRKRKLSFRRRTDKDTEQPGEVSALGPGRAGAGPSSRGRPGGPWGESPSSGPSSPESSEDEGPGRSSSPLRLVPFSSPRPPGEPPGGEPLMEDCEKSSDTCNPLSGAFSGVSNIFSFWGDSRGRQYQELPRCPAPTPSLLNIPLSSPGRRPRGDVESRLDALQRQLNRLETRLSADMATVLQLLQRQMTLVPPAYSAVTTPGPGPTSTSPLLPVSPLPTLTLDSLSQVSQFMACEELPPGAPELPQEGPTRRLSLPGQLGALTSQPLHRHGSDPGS
T5 sequence (P34969 whole entry): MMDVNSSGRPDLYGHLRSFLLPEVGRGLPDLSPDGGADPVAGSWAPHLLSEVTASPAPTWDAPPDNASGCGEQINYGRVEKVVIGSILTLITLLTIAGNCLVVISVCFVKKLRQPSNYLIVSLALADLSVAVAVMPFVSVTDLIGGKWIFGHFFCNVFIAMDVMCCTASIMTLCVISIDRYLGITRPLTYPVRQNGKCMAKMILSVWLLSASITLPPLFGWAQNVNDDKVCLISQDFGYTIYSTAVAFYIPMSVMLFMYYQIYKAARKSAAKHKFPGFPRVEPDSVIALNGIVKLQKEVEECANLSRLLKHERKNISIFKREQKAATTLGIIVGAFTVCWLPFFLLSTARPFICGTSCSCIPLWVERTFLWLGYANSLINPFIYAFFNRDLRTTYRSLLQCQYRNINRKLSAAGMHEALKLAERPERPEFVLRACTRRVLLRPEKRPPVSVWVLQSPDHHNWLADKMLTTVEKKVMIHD
T6 sequence (P35462 whole entry): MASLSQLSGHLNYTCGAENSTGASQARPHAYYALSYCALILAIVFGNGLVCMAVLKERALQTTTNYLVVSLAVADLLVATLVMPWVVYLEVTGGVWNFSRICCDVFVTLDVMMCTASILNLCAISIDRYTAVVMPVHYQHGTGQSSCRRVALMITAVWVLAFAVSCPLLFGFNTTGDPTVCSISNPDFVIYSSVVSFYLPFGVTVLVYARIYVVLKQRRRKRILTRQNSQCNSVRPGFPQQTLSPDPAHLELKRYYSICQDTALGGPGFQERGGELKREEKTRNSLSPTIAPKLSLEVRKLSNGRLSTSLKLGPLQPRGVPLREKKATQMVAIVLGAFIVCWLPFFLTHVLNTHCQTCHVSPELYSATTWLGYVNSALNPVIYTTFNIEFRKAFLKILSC

Compound: NCCc1ccc(O)c(O)c1 [dopamine]
EC50 (D2 [1]): EC50 and IC50 values for dopamine and ML321, respectively, were determined

inhibition at 10 µM [2]: 48% | inhibition at 10 µM [3]: 64% | inhibition at 10 µM (5-HT7 serotonin receptor): 53% | inhibition at 10 µM (D3): 59% | koff [4]: 1.3 min⁻¹ | inhibition at 10 µM (D2 [5]): 92%
Compound: CN1C(=O)c2ccccc2[S@+]([O-])c2ccc(C(=O)NCCc3cccs3)cc21 [ML321]
IC50 (hERG K+ channel): > 25000 nM

Kd [6]: 11.5 ± 0.16 nM
Compound: PPHT-red

Compound: O=C(CCCN1CCC2(CC1)C(=O)NCN2c1ccccc1)c1ccc(F)cc1 [spiperone]
Ki (D2 [7]): performed using both ML321 and unlabeled spiperone (as a control) with the wild-type
